Test results as given in US20110263423A1, “Plant Health Composition” (BASF SE, priority 2008, published 2011).

Columns and labels:
Type in all cases: in vivo
[1] = test system: spring wheat (cv. Passat); experiment: Spring wheat pot trial, moderate drought stress (Example 3)
Experimental: Spring wheat (cv. Passat) was cultivated in Mitcherlich pots as described above in example 1. The experiment was conducted with 6 replications in a vegetation hall. Experiments were carried out under semi controlled conditions at very low disease-pressure with insignificant infection rates, protected from any undesired rain or water impact. The water consumption of each pot was calculated on the basis of the recorded measurements of the weight of the pots prior to each irrigation event up to the defined set point. Pots without crop coverage were used to estimate the evaporation of the soil.
Nitrogen fertilizer (totally 1.75 g N/pot) was added in equal amounts at 3 stages to allow optimal growth conditions throughout the life cycle. All plants/pots were grown at optimal water supply by watering 2-3 times a day to 60% of the water holding capacity of the soil until growth stage 55 (BBCH). Then, pots were only watered to 30% of the maximum water holding capacity of the soil to apply moderate drought stress. Compound Ia (62.5 g/l, 2 L in 400 L water/ha) was applied at growth stage 39/49 (BBCH scale), which is an EC formulation of comound Ia. Control plants were not treated.
At maturity of the plants the grain was harvested and uniformly dried to 5% moisture content. Number of grains per pot was counted after harvest. Thousand Grain Weight (TGW), as an indicator of plant yield, was calculated based on grain yield per pot and number of grains per pot. Transpiration was calculated on the basis of the amount of water added to the respective pots and the estimated soil evaporation. Water use efficiency, as an indicator of drought stress tolerance of a plant, was calculated based on the respective transpiration per pot.

[2] = test system: Soybeans (Pioneer 93-M-11, Crow C300 42); experiment: Soybean field trials, Dinuba 2008 (Example 4)
Experimental: Soybeans were grown in 2008 in two field trials at the BASF experimental station in Dinuba, 10181 Avenue 416, Calif., U.S.A. In one trial, the variety Pioneer 93-M-11 was planted at a seeding rate of 88 kg/ha. In a second trial, the variety Crow C300 42 was planted at the same seeding rate. Both trials were setup as randomized complete block design with 5 replications, each. Plot size was 42 m^2. Compound la was used as an EC formulation (62.5 g a.i./L) with a dose rate of 0.64 L per hectar (40 g a.i./ha). The formulation was applied in a total spray volume of 300 L/ha. Compound Ia was sprayed at growth stage 34/37 (BBCH) with a tractor mounted spray boom with VS11003 spray nozzles at 3 bar spray pressure.
(§1) No disease symptoms were visible at the application time and no symptoms were detected at later stages.
Green leaf area, as an indicator of plant vigor, was assessed in the second trial (variety Crow C300 42) when all pods had reached their final size by estimating the green leaf area in 10 randomly chosen plants per plot. At maturity the grain was harvested and the grain yield per plot, as an indicator of plant yield, was determined (kg/plot). Finally, the grain yield per hectare was calculated (dt/ha). Thousand Grain Weight (TGW) was determined in the second trial (Crow C300 42).

Maize (Pioneer 34-N-45) = experiment: Maize field trial, mixture with epoxiconazol, Colby synergism (Example 6); conditions: 50 g a.i./ha of each compound
Experimental: Maize was grown in 2008 in a field trial at the BASF experimental station in Dinuba, 10181 Avenue 416, Calif., U.S.A. The variety Pioneer 34-N-45 was planted at a seeding rate of 35.000 plants/ha. The trial was setup as a randomized bloc design with 5 replications, each. Plot size was 43 m^2.
The maize plants were either untreted, treated with epoxiconazol (A3), with compound Ia, and with a mixture comprising compound Ia and epoxiconazol. Epoxiconazol was applied as the commercial formulation OPUS™ (125 g a.i./L, SC formulation) at a dose rate of 0.4 L/ha (50 g a.i./ha). Compound Ia was used as an EC formulation (62.5 g a.i./L) with a dose rate of 0.8 L per hectar (50 g a.i./ha). Epoxiconazol was applied together with compound Ia (as a mixture) using a co-formulation of both compounds (EC formulation, 62.5 g a.i./L each) with a product rate of 0.8 L/ha. The formulation was applied in a total spray volume of 300 L/ha. Compound Ia was sprayed at growth stage 51/55 (BBCH) with a tractor mounted spray boom with VS11003 spray nozzles at 3 bar spray pressure.
as §1
At maturity the grain was harvested and the grain yield per plot, as an indicator of plant yield, was determined (kg/plot). Finally, the grain yield per hectare was calculated (dt/ha).
The efficacy was calculated as % increase of the grain yield (dt/ha) by each treatment compared to the untreated control.
The expected efficacies of the combinations of the active compounds were estimated using Colby's formula (Colby, S. R., Calculating synergistic and antagonistic responses of herbicide combinations, Weeds, 15, pp. 20-22, 1967) and compared with the observed efficacies.
E=x+y−x·y/100 Colby's formula: • E expected efficacy, expressed in % of the untreated control, when using the mixture of the active compounds A and B at the concentrations a and b • x efficacy, expressed in % of the untreated control, when using the active ingredient A at the concentration a • y efficacy, expressed in % of the untreated control, when using the active ingredient B at the concentration b

[3] = moderate drought stress, 2 L/ha EC at BBCH 39/49
[4] = 40 g a.i./ha, listed as compound Ia

In the case of `Cn1cc(C(=O)Nc2ccccc2-c2cc(F)c(F)c(F)c2)c(C(F)F)n1` [Compound Ia, N-(3′,4′,5′-trifluorobiphenyl-2-yl)-3-difluoromethyl-1-methyl-1H-pyrazole-4-carboxamide], the “Thousand Grain Weight, change vs untreated control” value ([1]; moderate drought stress) is reported as “(+4%)”, the “Transpiration, change vs untreated control” value ([1]; moderate drought stress) is reported as “(−4%)” and the “Water use efficiency, change vs untreated control” value ([1]; moderate drought stress) is reported as “(+3%)”. For the same compound, the Transpiration ([1]; moderate drought stress (30% water holding capacity from BBCH 55), 2 L/ha EC at BBCH 39/49) was 26.5 L water/pot, the “Thousand Grain Weight” value [1, 3] was 31.2 g and the Water use efficiency [1, 3] was 2.02 g grain/L water. For the same compound, the “Soybean grain yield (Trial 1) Pioneer 93M11, increase as % of untreated” value ([2]; 40 g a.i./ha) was “(+11.6%)”, the “Soybean grain yield (Trial 2) Crow C300 42, increase as % of untreated” value ([2]; 40 g a.i./ha) was “(+6.5%)” and the “Soybean grain yield, Mean of two trials, increase as % of untreated” value ([2]; 40 g a.i./ha) was “(+8.5%)”. The “Soybean grain yield (Trial 1) Pioneer 93M11” value ([2]; 40 g a.i./ha at BBCH 34/37) was 45.5 dt/ha, the “Soybean grain yield (Trial 2) Crow C300 42” value ([2]; 40 g a.i./ha at BBCH 34/37) was 67.1 dt/ha and the “Soybean grain yield, Mean of two trials” value ([2]; 40 g a.i./ha at BBCH 34/37) was 56.3 dt/ha. For the same compound, the “Soybean grain yield (Trial 1) Pioneer 93M11, increase as % of untreated” value [2, 4] was roughly 12%, the “Soybean grain yield, Mean of two trials, increase as % of untreated” value [2, 4] was 8.5% and the TGW ([2]; soybean Crow C300 42 (second trial), 40 g a.i./ha at BBCH 34/37) was 177.0 g. For the same compound, the “% Green leaf area” value ([2]; soybean Crow C300 42 (second trial), 40 g a.i./ha at BBCH 34/37, pods at final size) was 88.4%, the “TGW, increase as % of untreated” value ([2]; soybean Crow C300 42, 40 g a.i./ha) was “(+5.7%)” and the “Observed efficacy (% increase of grain yield vs untreated control)” value (Maize (Pioneer 34-N-45)) was 0.4%. It also gave a Grain yield (Maize (Pioneer 34-N-45); BBCH 51/55) of 154.9 dt/ha.
